PubChem BioAssay AID1259408 (Genetic Toxicology Data Bank (GENE-TOX), 2018)
Calls of active or inactive are those of the source. How the calls were made is not given here.

System: GENE-TOX genotoxicity assays, various organisms and cells
Assay: GENE-TOX mutagenicity studies
[1] = Species/Cell Type: Escherichia coli polA (W3119 vs P3478), Assay Type: Rec-assay, DNA effects (bacterial DNA repair), Assay Code: RE1+, Evaluation Type: Evaluation A (Pre-1980)
[2] = Species/Cell Type: Salmonella typhimurium (one or more of the five standard strains: TA98, TA100, TA1535, TA1537, and TA1538), Assay Type: Histidine reverse gene mutation, Ames assay, Assay Code: SAL+, Evaluation Type: Evaluation A (Pre-1980)
[3] = Species/Cell Type: Syrian hamster embryo (SHE) cells, Assay Type: Cell transformation, clonal assay, Assay Code: CTC+, Evaluation Type: Evaluation A (Pre-1980)
[4] = Species/Cell Type: Arabidopsis species, Assay Type: Gene mutation, Assay Code: ARM-, Evaluation Type: Evaluation A (Pre-1980)

O=C(COc1ccc(Br)cc1CN1CCCCC1)N/N=C\c1ccccc1
mutagenic call (Species/Cell Type: Saccharomyces cerevisiae, Assay Type: Reverse gene mutation, Assay Code: YERT, Evaluation Type: Evaluation A (Pre-1980)): no conclusion

O=NO
mutagenic call (Species/Cell Type: Arabidopsis species, Assay Type: Gene mutation, Assay Code: ARMT, Evaluation Type: Evaluation A (Pre-1980)): no conclusion
mutagenic call (Species/Cell Type: Aspergillus nidulans, Assay Type: Forward gene mutation, Assay Code: ASF+, Evaluation Type: Evaluation A (Pre-1980)): active; positive
mutagenic call (Species/Cell Type: Drosophila melanogaster, Assay Type: Sex-linked recessive lethal gene mutation, Assay Code: SRL+, Evaluation Type: Evaluation A (Pre-1980)): active; positive
mutagenic call [1]: active; positive
mutagenic call (Species/Cell Type: Human lymphocytes, Assay Type: Sister-chromatid exchange (SCE) in vitro, Assay Code: SCL+, Evaluation Type: Evaluation B (Post-1980)): active; positive
mutagenic call (Species/Cell Type: Human, Assay Type: Sister-chromatid exchange (SCE) in vitro, Assay Code: SC1+, Evaluation Type: Evaluation B (Post-1980)): active; positive
mutagenic call (Species/Cell Type: Mammalian oocytes or early embryo, Assay Type: Chromosome aberrations in vivo, Assay Code: CYO+, Evaluation Type: Evaluation A (Pre-1980)): active; positive
mutagenic call (Species/Cell Type: Mammalian polychromatic erythrocytes, Assay Type: Micronucleus test, chromosome aberrations, Assay Code: MNT+, Evaluation Type: Evaluation B (Post-1980)): active; positive
mutagenic call (Species/Cell Type: Mammalian polychromatic erythrocytes, Assay Type: Micronucleus test, chromosome aberrations, Assay Code: MNTT, Evaluation Type: Evaluation A (Pre-1980)): no conclusion
mutagenic call (Species/Cell Type: Mouse, Sex: Male, Assay Type: Heritable translocation test, chromosome aberrations, Assay Code: HTTT, Evaluation Type: Evaluation A (Pre-1980)): no conclusion
mutagenic call (Species/Cell Type: Neurospora crassa, Assay Type: Forward gene mutation, Assay Code: NEF+, Evaluation Type: Evaluation A (Pre-1980)): active; positive
mutagenic call (Species/Cell Type: Neurospora crassa, Assay Type: Reverse gene mutation, Assay Code: NER+, Evaluation Type: Evaluation A (Pre-1980)): active; positive
mutagenic call (Species/Cell Type: Nonhuman, Assay Type: Chromosome aberrations in vitro, Assay Code: CY&+D, Dose Response: With dose response, Evaluation Type: Evaluation A (Pre-1980)): active; positive
mutagenic call (Species/Cell Type: Nonhuman, Assay Type: Sister-chromatid exchange (SCE) in vitro, Assay Code: SC2+, Evaluation Type: Evaluation A (Pre-1980)): active; positive
mutagenic call (Species/Cell Type: Nonhuman, Assay Type: Sister-chromatid exchange (SCE) in vivo, Assay Code: SC3T, Evaluation Type: Evaluation B (Post-1980)): no conclusion
mutagenic call (Species/Cell Type: Rodents, Sex: Male, Assay Type: Dominant lethal test, Assay Code: DLT-, Evaluation Type: Evaluation A (Pre-1980)): inactive; negative
mutagenic call (Species/Cell Type: Saccharomyces cerevisiae, Assay Type: Forward gene mutation, Assay Code: YEF+, Evaluation Type: Evaluation A (Pre-1980)): active; positive
mutagenic call (Species/Cell Type: Saccharomyces cerevisiae, Assay Type: Mitotic recombination or gene conversion, Assay Code: YEC+, Evaluation Type: Evaluation A (Pre-1980)): active; positive
mutagenic call (Species/Cell Type: Saccharomyces cerevisiae, Assay Type: Mitotic recombination or gene conversion, Assay Code: YEH+, Evaluation Type: Evaluation A (Pre-1980)): active; positive
mutagenic call (Species/Cell Type: Saccharomyces cerevisiae, Assay Type: Reverse gene mutation, Assay Code: YER+, Evaluation Type: Evaluation A (Pre-1980)): active; positive
mutagenic call [2]: active; positive
mutagenic call (Species/Cell Type: Salmonella typhimurium, Assay Type: Forward and reverse gene mutation, host-mediated assay, Assay Code: HMA-, Evaluation Type: Evaluation A (Pre-1980)): inactive; negative
mutagenic call (Species/Cell Type: Schizosaccharomyces pombe, Assay Type: Forward gene mutation, Assay Code: YEY+, Evaluation Type: Evaluation A (Pre-1980)): active; positive
mutagenic call (Species/Cell Type: Schizosaccharomyces pombe, Assay Type: Reverse gene mutation, Assay Code: YEZ+, Evaluation Type: Evaluation A (Pre-1980)): active; positive
mutagenic call [3]: active; positive

[N-]=[N+]=CC(=O)NCC(=O)NN
mutagenic call [2]: active; positive

C[C@@H]1C[C@@H]2OC(=O)[C@]3(C)[C@H]2[C@@H](OC3(C)O)[C@]2(C)C(=O)C=C[C@@H]12 (stereo partly drawn)
mutagenic call (Species/Cell Type: Salmonella typhimurium (one or more of the five standard strains: TA98, TA100, TA1535, TA1537, and TA1538), Assay Type: Histidine reverse gene mutation, Ames assay, Assay Code: SAL-, Evaluation Type: Evaluation A (Pre-1980)): inactive; negative

OCSc1ncc[nH]1
mutagenic call [4]: inactive; negative

Cc1ccc([N+](=O)[O-])o1
mutagenic call (Species/Cell Type: Bacillus subtilis (H17 vs M45T), Assay Type: Rec-assay, spot test, DNA effects (bacterial DNA repair), Assay Code: REX+, Evaluation Type: Evaluation A (Pre-1980)): active; positive
mutagenic call [3]: active; positive

Nc1ccc(N=Nc2cccc(N=Nc3ccc(N)cc3N)c2)c(N)c1
mutagenic call (Species/Cell Type: Bacillus subtilis (H17 vs M45), Assay Type: Rec-assay, spot test, DNA effects (bacterial DNA repair), Assay Code: REWT, Evaluation Type: Evaluation A (Pre-1980)): no conclusion

Cc1ccc2ncccc2c1
mutagenic call (Species/Cell Type: Salmonella typhimurium (one or more of the five standard strains: TA98, TA100, TA1535, TA1537, and TA1538), Assay Type: Histidine reverse gene mutation, Ames assay, Assay Code: SAL+*, Activation: With metabolic activation, Evaluation Type: Evaluation A (Pre-1980)): active; positive

BrC(Br)C(Br)Br
mutagenic call [1]: active; positive

COc1ccc2nc3cc(Cl)ccc3c(NCCCNCCCl)c2n1
mutagenic call (Species/Cell Type: Chinese hamster ovary (CHO) cells, Assay Type: Forward gene mutation at the HPRT locus, Assay Code: CHO+D, Dose Response: With dose response, Evaluation Type: Evaluation A (Pre-1980)): active; positive

O=Nn1c2ccccc2c2ccccc21
mutagenic call (Species/Cell Type: Rat primary hepatocytes, Assay Type: Unscheduled DNA synthesis (UDS) in vitro, DNA effects, Assay Code: UDP-, Evaluation Type: Evaluation A (Pre-1980)): inactive; negative

O=C1CCC(=O)N1CN1CCOCC1
mutagenic call [4]: inactive; negative

CCSc1nc2c(c(=O)n(C)c(=O)n2C)n1C
mutagenic call (Species/Cell Type: Allium cepa, Assay Type: Chromosome aberrations, Assay Code: ALC+D, Dose Response: With dose response, Evaluation Type: Evaluation A (Pre-1980)): active; positive
